According to US9468670B2, “Melatonin-based treatment and diagnosis of bile duct disease” (Texas A&M University System, priority 2011, dated 2016):

Assays:
[1] = H&E evaluation of organ damage in melatonin-treated rats; assay type: in vivo, rat; conditions: normal and BDL rats treated with melatonin
Experimental: The following was also evaluated in paraffin-embedded liver sections ([…]): (i) lobular necrosis; (ii) the intrahepatic bile duct mass (IBDM) of large ([…]) (Alpini et al., 1997; Glaser et al., 2009) cholangiocytes, the only biliary cell types proliferating following BDL (Alpini et al., 1998; Glaser et al., 2009) and (iii) the percentage of cholangiocyte apoptosis by semiquantitative terminal deoxynucleotidyltransferase biotin-dUTP nick-end labeling (TUNEL) kit (Apoptag; Chemicon International, Inc.) (Glaser et al., 2010). Lobular necrosis was measured in liver sections stained for hematoxylin and eosin (Glaser et al., 2010). Lobular necrosis was scored as follows: −=0 foci; +/−=<2 foci; +=2-4 foci; and ++=>4 foci (Glaser et al., 2010). The IBDM was measured as area occupied by CK-19 positive-bile duct/total area×100 (Glaser et al., 2010). It was also evaluated by H&E of sections if melatonin administration induces the damage of kidney, heart, stomach, spleen and small and large intestine of normal and BDL rats. The sections from the selected were evaluated in a blinded-fashion by two board-certified pathologists by a BX-51 light microscope (Olympus, Tokyo, Japan) equipped with a camera.

[2] = Melatonin serum levels by ELISA in normal and BDL rats; assay type: in vivo; conditions: male, Fischer 344, rat, oral, 20 mg/L in drinking water, tap water containing melatonin (20 mg/L) for 1 week
Experimental: Male 344 Fischer rats (150-175 g) were purchased from Charles River (Wilmington, Mass.) and kept in a temperature-controlled environment (22° C.) with 12:12 hr light/dark cycles. Animals were fed ad libitum and had free access to food and drinking water. The studies were performed in normal rats, and in rats that immediately after bile duct ligation (BDL, for collection of serum, liver tissues and cells) (Alpini et al., 1988) or bile duct incannulation (BDI, for bile collection) (Alpini et al., 1988) had ad libitum access to tap water or tap water containing melatonin (20 mg/L in drinking water that corresponds to approximately an intake of melatonin of 2 mg/g BW per day per rat) (Anisimov et al., 2003) for 1 week. Before each surgical procedure, animals were anesthetized with sodium pentobarbital (50 mg/kg BW, IP).
Melatonin serum levels were measured by commercially available ELISA kits according to the instructions provided by the vendor (Genway, San Diego, Calif.).

[3] = Liver and body weight of nude mice bearing Mz-ChA-1 tumors; assay type: in vivo, nude (nu/nu) mice; conditions: 4 mg/kg BW IP three times a week
Experimental: Experiments were performed to evaluate the in vivo effect of melatonin on the growth of cholangiocarcinoma cell lines implanted in the flanks of athymic mice (Francis H et al., 2009). Male BALB/c 6-wk-old nude (nu/nu) mice (Taconic Farms. Hudson, N.Y.) were kept in a temperature-controlled environment (20-22° C.) with 12-hr light-dark cycles, fed ad libitum standard mouse chow, and with free access to drinking water. Mz-ChA-1 cells (5×10^6) were suspended in 0.2 ml of extracellular matrix gel and injected subcutaneously in the rear flanks of the nude mice. After the establishment of the tumor (one week with a tumor size of ˜5 mm^3) mice (n=4) were treated with vehicle (5% ethanol in water) or melatonin (4 mg/kg BW, dissolved in 5% aqueous ethanol solution) (Sewerynek et al., 1995) by IP injections three times a week. Tumor variables were measured three times a week by an electronic caliper, and volume was determined as follows: tumor volume (mm^3)=0.5×[length (mm)×width (mm)×height (mm)]. The measurements started from the first week when the tumor mass was established. After 43 days of treatment, were anesthetized with sodium pentobarbital (50 mg/kg BW IP) and tumor tissues were harvested from the flanks of the mice. Heart, liver, and kidney tissues were collected for evaluation of organ damage by H&E staining of paraffin-embedded sections ([…]). All experiments were conducted under the guidelines of the Scott & White and Texas A&M HSC IACUC Committee. Tumors were allowed to grow until maximum allowable tumor burden was reached as set forth by the Scott & White and Texas A&M HSC IACUC tumor burden policy. Tumor tissues were fixed for 4 hr in 10% buffered formalin and embedded in low-temperature fusion paraffin. […] Semiquantitative analysis for these markers was evaluated by image-analysis software, Image-Pro Plus (Media Cybernetics, Silver Springs, Md.) (Lejeune et al., 2008). Three randomly chosen fields were calculated for statistics.

[4] = system: PER1, BMAL1, CRY1, CLOCK, MT1 and MT2; assay: FACS analysis of clock proteins and MT1/MT2 in large mouse cholangiocyte lines; assay type: cell-based; conditions: in vitro melatonin vs. basal value
Experimental: (i) in paraffin-embedded liver sections ([…]) from normal and BDL control rats by immunohistochemistry ([…] al., 2009); and (ii) in total RNA (1 μg, by real-time PCR) (Francis et al., 2008) from purified cholangiocytes. […] FACS analysis was performed as described (Onori et al., 2010) using a C6 flow cytometer and analyzed by CFlow Software (Accuri Cytometers Inc. Ann Arbor, Mich.). At least 10,000 events in the light-scatter (SSC/FSC) were acquired. The expression of the selected protein was identified and gated on FL1-A/Count plots. The relative quantity of the selected protein (mean selected protein fluorescence) was expressed as mean FL1-A (samples)/mean FL-1A (secondary antibodies only).

[5] = system: CLOCK gene; assay: CLOCK expression by qPCR in CCA lines after melatonin; assay type: cell-based, human; conditions: melatonin 10-11 M for 48 hours
Experimental: Methods: Melatonin immunoreactivity, the expression of melatonin biosynthesis enzymes and receptors were assessed by immunohistochemistry in tissue arrays from normal and CCA patients, and by qPCR and immunoblots in intra-hepatic and extra-hepatic CCA cell lines, and a normal cholangiocyte line (H69). Proliferation was evaluated in vitro by MTS assay in CCA lines and H69 after treatment with melatonin (10-7 to 10-11 M, 24-72 hours). In parallel, the expression of CLOCK after melatonin treatment (10-11 M for 48 hours) was assessed in CCA lines and normal cholangiocytes by qPCR.

SMILES: COc1ccc2[nH]cc(CCNC(C)=O)c2c1 [melatonin]
- Morphological damage of kidney, heart, stomach, spleen and small and large intestine [1]: No morphological damage
- concentration at 1 week ([2]; BDL rats): 0.165 ± 0.0668 ng/mL
- concentration at 1 week ([2]; normal rats): 0.14 ± 0.0127 ng/mL
- Body weight [3]: 35.25 ± 0.73 gm
- Liver to body [3]: 8.01% ± 0.21
- Liver weight [3]: 2.82 ± 0.13 gm
- Expression of MT1 and MT2 (FACS) [4]: decreased
- Expression of PER1, BMAL1, CRY1 and CLOCK (FACS) [4]: decreased
- Increase in levels of the CLOCK gene in CCA cells [5]: ~50%
